In patent publication EP0641797A1, “Cephem derivatives and antimicrobial agents containing the same” (KATAYAMA SEIYAKUSYO CO. Ltd., priority 1993, dated 1995):
≈ marks a conversion by molar mass, not a printed value.

Assays:
Assay in all cases: MIC on standard strains, standard method of Japan Society of Chemotherapy
Assay type in all cases: cell-based
[1] = test system: A. calcoaceticos T59; conditions: read-out: MIC
Method: (§1) Antimicrobial activity of the compounds of the present invention were measured using CTM (cefotiam) and FMOX (flomoxef) as control drugs in accordance with the standard method of Japan Society of Chemotherapy. Of the 25 standard strains used in this test, Staphylococcus aureus 167 and Staphylococcus aureus 195 belong to MRSA.
(§2) In these tables, drugs tested are shown by the corresponding examples in which they were synthesized.

[2] = test system: A. faecalis ATCC 3750; conditions: Alcaligenes faecalis, ATCC3750, A. faecalis ATCC 3750; read-out: MIC
Method: as §1, §2

[3] = test system: B. subtilis ATCC 6633; conditions: Bacillus subtilis, ATCC6633, B. subtilis ATCC 6633; read-out: MIC
Method: as §1, §2

[4] = test system: C. freundii ATCC 8090; conditions: Citrobacter freundii, ATCC8090, C. freundii ATCC 8090; read-out: MIC
Method: as §1, §2

[5] = test system: E. cloacae ATCC 13407; conditions: Enterobacter cloacae, ATCC13407, E. cloacae ATCC 13407; read-out: MIC
Method: as §1, §2

[6] = test system: E. cloacae Nek39; conditions: Enterobacter cloacae, NEK39, E. cloacae Nek39; read-out: MIC
Method: as §1, §2

[7] = test system: E. coli CSH2(RE45); conditions: Escherichia coli
Method: as §1, §2

[8] = test system: E. coli CSH2(RK1); conditions: Escherichia coli
Method: as §1, §2

[9] = test system: E. coli NHIJ JC-2; conditions: Escherichia coli, NHIJJC2
Method: as §1, §2

[10] = test system: K. pneuminiae IFO 3317
Method: as §1, §2

[11] = test system: K. pneuminiae No. 42
Method: as §1, §2

[12] = test system: M. luteus ATCC 9341; conditions: Micrococcus luteus, ATCC9341
Method: as §1, §2

[13] = test system: M. morganii IFO 3848; conditions: Morganella morganii, IFO3848
Method: as §1, §2

[14] = test system: P. aeruginosa AKR17; conditions: Pseudomonas aeruginosa
Method: as §1, §2

[15] = test system: P. aeruginosa NCTC 10490; conditions: Pseudomonas aeruginosa, NCTC10490, P. aeruginosa NCTC 10490; read-out: MIC
Method: as §1, §2

[16] = test system: P. cepacia; conditions: Burkholderia cepacia, read-out: MIC
Method: as §1, §2

[17] = test system: P. mirabilis IFO 3849; conditions: Proteus mirabilis, IFO3849, P. mirabilis IFO 3849; read-out: MIC
Method: as §1, §2

[18] = test system: P. vulugaris OX-19
Method: as §1, §2

[19] = test system: S. aureus 167; conditions: Staphylococcus aureus; S. aureus 167 (MRSA)
Method: as §1, §2

[20] = test system: S. aureus 195; conditions: Staphylococcus aureus; S. aureus 195 (MRSA)
Method: as §1, §2

[21] = test system: S. aureus 209p JC-1; conditions: Staphylococcus aureus, 209P, read-out: MIC
Method: as §1, §2

[22] = test system: S. aureus Smith; conditions: Staphylococcus aureus, read-out: MIC
Method: as §1, §2

[23] = test system: S. epidemidis IAM 1296
Method: as §1, §2

[24] = test system: S. marcescens IAM 1184; conditions: Serratia marcescens, IAM1184, S. marcescens IAM 1184; read-out: MIC
Method: as §1, §2

[25] = test system: S. marcescens No. 16-2; conditions: Serratia marcescens, NO.162
Method: as §1, §2

Row | SMILES | MIC [1] [µg/mL] | MIC [2] [µg/mL] | MIC [3] [µg/mL] | MIC [4] [µg/mL] | MIC [5] [µg/mL] | MIC [6] [µg/mL] | MIC [7] [µg/mL] | MIC [8] [µg/mL] | MIC [9] [µg/mL] | MIC [10] [µg/mL] | MIC [11] [µg/mL] | MIC [12] [µg/mL] | MIC [13] [µg/mL] | MIC [14] [µg/mL] | MIC [15] [µg/mL] | MIC [16] [µg/mL] | MIC [17] [µg/mL] | MIC [18] [µg/mL] | MIC [19] [µg/mL] | MIC [20] [µg/mL] | further results
1 | Nc1nc(-c2ccc[n+](CC3=C(C(=O)[O-])N4C(=O)[C@@H](NC(=O)/C(=N\O)c5csc(N)n5)[C@H]4SC3)c2)no1 [Ex. 14, 7β-[2-(2-aminothiazol-4-yl)-2-syn-hydroxyiminoacetamido)-3-[3-(5-amino-1,2,4-oxadiazol-3-yl)pyridinio]methyl-3-cephem-4-carboxylate] | 12.5 (≈ 23 µM) | 3.13 (≈ 5.76 µM) | 0.2 (≈ 0.368 µM) | 0.2 (≈ 0.368 µM) | 3.13 (≈ 5.76 µM) | 100 (≈ 184 µM) | 0.39 (≈ 0.718 µM) | 0.78 (≈ 1.44 µM) | 0.39 (≈ 0.718 µM) | 0.39 (≈ 0.718 µM) | 0.78 (≈ 1.44 µM) | 0.05 (≈ 0.092 µM) | 0.2 (≈ 0.368 µM) | > 100 | 3.13 (≈ 5.76 µM) | > 100 | 0.39 (≈ 0.718 µM) | 0.39 (≈ 0.718 µM) | 12.5 (≈ 23 µM) | 6.25 (≈ 11.5 µM) | MIC [21]: 0.2 µg/mL (≈ 0.368 µM); MIC [22]: 0.39 µg/mL (≈ 0.718 µM); MIC [23]: 0.1 µg/mL (≈ 0.184 µM); MIC [24]: 0.78 µg/mL (≈ 1.44 µM); MIC [25]: > 100 µg/mL
2 | Nc1nc(/C(=N/O)C(=O)N[C@@H]2C(=O)N3C(C(=O)[O-])=C(C[n+]4ccc(-c5ncno5)cc4)CS[C@H]23)cs1 [Ex. 8, 7β-[2-(2-aminothiazol-4-yl)-2-syn-hydroxyiminoacetamido]-3-[4-(1,2,4-oxadiazol-5-yl)pyridinio]methyl-3-cephem-4-carboxylate] | 12.5 (≈ 23.7 µM) | 0.78 (≈ 1.48 µM) | 0.78 (≈ 1.48 µM) | 0.2 (≈ 0.378 µM) | 3.13 (≈ 5.92 µM) | 50 (≈ 94.6 µM) | 0.39 (≈ 0.738 µM) | 1.56 (≈ 2.95 µM) | 0.39 (≈ 0.738 µM) | 0.2 (≈ 0.378 µM) | 0.78 (≈ 1.48 µM) | 0.05 (≈ 0.0946 µM) | 0.05 (≈ 0.0946 µM) | > 100 | 1.56 (≈ 2.95 µM) | > 100 | 0.2 (≈ 0.378 µM) | 0.2 (≈ 0.378 µM) | 12.5 (≈ 23.7 µM) | 3.13 (≈ 5.92 µM) | MIC [21]: 0.39 µg/mL (≈ 0.738 µM); MIC [22]: 0.39 µg/mL (≈ 0.738 µM); MIC [23]: 0.1 µg/mL (≈ 0.189 µM); MIC [24]: 0.39 µg/mL (≈ 0.738 µM); MIC [25]: 100 µg/mL (≈ 189 µM)
3 | Nc1nc(/C(=N/O)C(=O)N[C@@H]2C(=O)N3C(C(=O)[O-])=C(C[n+]4cccc(-c5ncno5)c4)CS[C@H]23)cs1 [Ex. 7, 7β-[2-(2-aminothiazol-4-yl)-2-syn-hydroxyiminoacetamido]-3-[3-(1,2,4-oxadiazol-5-yl)pyridinio]methyl-3-cephem-4-carboxylate] | 25 (≈ 47.3 µM) | 3.13 (≈ 5.92 µM) | 0.78 (≈ 1.48 µM) | 0.78 (≈ 1.48 µM) | 6.25 (≈ 11.8 µM) | 100 (≈ 189 µM) | 1.56 (≈ 2.95 µM) | 1.56 (≈ 2.95 µM) | 0.78 (≈ 1.48 µM) | 0.78 (≈ 1.48 µM) | 1.56 (≈ 2.95 µM) | 0.2 (≈ 0.378 µM) | 0.39 (≈ 0.738 µM) | > 100 | 6.25 (≈ 11.8 µM) | > 100 | 0.78 (≈ 1.48 µM) | 1.56 (≈ 2.95 µM) | 12.5 (≈ 23.7 µM) | 6.25 (≈ 11.8 µM) | MIC [21]: 0.39 µg/mL (≈ 0.738 µM); MIC [22]: 0.78 µg/mL (≈ 1.48 µM); MIC [23]: 0.2 µg/mL (≈ 0.378 µM); MIC [24]: 0.78 µg/mL (≈ 1.48 µM); MIC [25]: > 100 µg/mL
4 | Nc1nc(-c2cc[n+](CC3=C(C(=O)[O-])N4C(=O)[C@@H](NC(=O)/C(=N\O)c5csc(N)n5)[C@H]4SC3)cc2)n[nH]1 [Ex. 16, 7β-[2-(2-aminothiazol-4-yl)-2-syn-hydroxyiminoacetamido]-3-[4-(3-aminotriazol-5-yl)pyridinio]methyl-3-cephem-4-carboxylate] | 12.5 (≈ 23 µM) | 1.56 (≈ 2.88 µM) | 0.2 (≈ 0.369 µM) | 0.2 (≈ 0.369 µM) | 12.5 (≈ 23 µM) | > 100 | 0.2 (≈ 0.369 µM) | 0.78 (≈ 1.44 µM) | 0.1 (≈ 0.184 µM) | 0.1 (≈ 0.184 µM) | 0.39 (≈ 0.719 µM) | 0.025 (≈ 0.0461 µM) | 0.05 (≈ 0.0922 µM) | > 100 | 1.56 (≈ 2.88 µM) | > 100 | 0.2 (≈ 0.369 µM) | 0.1 (≈ 0.184 µM) | 3.13 (≈ 5.77 µM) | 1.56 (≈ 2.88 µM) | MIC [21]: 0.2 µg/mL (≈ 0.369 µM); MIC [22]: 0.39 µg/mL (≈ 0.719 µM); MIC [23]: 0.1 µg/mL (≈ 0.184 µM); MIC [24]: 0.2 µg/mL (≈ 0.369 µM); MIC [25]: > 100 µg/mL
